Assay results from ChEMBL document CHEMBL4196033, “Potent hydrazone derivatives targeting esophageal cancer cells” (Eur J Med Chem, 2018).

Assays:
Assay type in all cases: functional, cell-based
[1] = test system: EC9706; test: Antiproliferative activity against human EC9706 cells after 72 hrs by MTT assay; conditions: EC9706, 72 h
[2] = test system: ECa-109 cell line; test: Antiproliferative activity against human EC109 cells after 72 hrs by MTT assay; conditions: ECa-109, 72 h
[3] = test system: SMMC-7721; test: Antiproliferative activity against human SMMC7721 cells after 72 hrs by MTT assay; conditions: SMMC-7721, 72 h
[4] = test system: PC-3; test: Antiproliferative activity against human PC3 cells after 72 hrs by MTT assay; conditions: PC-3, 72 h
[5] = test system: MCF7; test: Antiproliferative activity against human MCF7 cells after 72 hrs by MTT assay; conditions: MCF7, 72 h
[6] = test system: MGC-803; test: Antiproliferative activity against human MGC803 cells after 72 hrs by MTT assay; conditions: MGC-803, 72 h

| SMILES | IC50 [1] [µM] | IC50 [2] [µM] | IC50 [3] [µM] | IC50 [4] [µM] | IC50 [5] [µM] | IC50 [6] [µM] |
| --- | --- | --- | --- | --- | --- | --- |
| NNC(=O)c1cccc(S(=O)(=O)N2CCOCC2)c1 | > 100 | > 100 |  |  |  |  |
| O=C(N/N=C/c1ccco1)c1cccc(S(=O)(=O)N2CCOCC2)c1 | > 100 | > 100 | > 100 | > 100 | > 100 | > 100 |
| C/C(=N\NC(=O)c1cccc(S(=O)(=O)N2CCOCC2)c1)c1ccccc1O | 1.22 | 5.45 | 1.37 | 2.81 | 5.4 | 1.22 |
| O=c1[nH]cc(F)c(=O)[nH]1 [FLUOROURACIL] | 5.13 | 6.02 | 13.7 | 6.27 | 18.8 | 9.24 |
| C/C(=N\NC(=O)c1cccc(S(=O)(=O)N2CCOCC2)c1)c1ccc(O)cc1 | 71.4 | 88.3 | 88.5 | 36.2 | > 100 | 71.4 |
| O=C(N/N=C/c1cccs1)c1cccc(S(=O)(=O)N2CCOCC2)c1 | > 100 | > 100 | > 100 | > 100 | > 100 | > 100 |
| O=C(N/N=C/c1cc(Cl)ccc1O)c1cccc(S(=O)(=O)N2CCOCC2)c1 | 2.15 | 2.84 | 6.82 | 10.5 | 16.4 | 11 |
| C/C(=N\NC(=O)c1cccc(S(=O)(=O)N2CCOCC2)c1)c1ccc(F)cc1 | > 100 | > 100 | > 100 | 81.3 | > 100 | > 100 |
| C/C(=N\NC(=O)c1cccc(S(=O)(=O)N2CCOCC2)c1)c1cccc(O)c1 | > 100 | > 100 | > 100 | > 100 | > 100 | > 100 |
| O=C(N/N=C/c1cc(Br)ccc1O)c1cccc(S(=O)(=O)N2CCOCC2)c1 | 29.7 | 11.7 | 9.94 | 7.23 | 26.6 | 14.8 |
| C/C(=N\NC(=O)c1cccc(S(=O)(=O)N2CCOCC2)c1)c1cccc(N)c1O | 3.52 | 5.06 | 2.33 | 2.33 | 1.01 | 0.53 |
| C/C(=N\NC(=O)c1cccc(S(=O)(=O)N2CCOCC2)c1)c1cc(O)ccc1O | 3.51 | 21.4 | > 100 | > 100 | > 100 | 9.09 |
| C/C(=N\NC(=O)c1cccc(S(=O)(=O)N2CCOCC2)c1)c1cc(Br)ccc1O | 24.7 | 5.28 | 2.41 | 6.89 | 7.83 | 18 |
| O=C(N/N=C/c1ccccn1)c1cccc(S(=O)(=O)N2CCOCC2)c1 | 44.3 | 55.7 | > 100 | 88.1 | > 100 | 81.7 |
| C/C(=N\NC(=O)c1cccc(S(=O)(=O)N2CCOCC2)c1)c1cc(F)ccc1O | 2.21 | 3.27 | 1.15 | 4.41 | 6.65 | 2.26 |
| O=C(N/N=C/c1ccccc1O)c1cccc(S(=O)(=O)N2CCOCC2)c1 | 19.6 | 14.4 | 12.1 | 13.8 | 29.1 | 25.3 |
| O=C(N/N=C/c1cc(Br)cc(Br)c1O)c1cccc(S(=O)(=O)N2CCOCC2)c1 | 2.44 | 10.3 | 7.31 | 9.7 | 16 | 17.8 |
| CCN(CC)c1ccc(/C=N/NC(=O)c2cccc(S(=O)(=O)N3CCOCC3)c2)c(O)c1 | 0.92 | 0.73 | 27.1 | 14 | 3.52 | 4.04 |
| CCOc1cccc(/C=N/NC(=O)c2cccc(S(=O)(=O)N3CCOCC3)c2)c1O | 15.4 | 16.5 | 6.99 | 15.3 | 19.3 | 18 |
| C/C(=N\NC(=O)c1cccc(S(=O)(=O)N2CCOCC2)c1)c1cccc(N)c1 | > 100 | > 100 | > 100 | > 100 | > 100 | > 100 |
| C/C(=N\NC(=O)c1cccc(S(=O)(=O)N2CCOCC2)c1)c1ccccc1 | > 100 | > 100 | > 100 | > 100 | > 100 | > 100 |
